# Assay results as given in patent US20190367516A1 (Bayer Pharma Aktiengesellschaft, priority 2015, published 2019).
# Where two headings read alike, the source gives them in different places.
# Columns and labels:
# [1] = target: T1, human M2 receptor (Homo sapiens, UniProt P08172); conditions: for Efficiency: boosting of the acetylcholine effect at EC20 acetylcholine concentration
# T1 sequence (P08172 1-466): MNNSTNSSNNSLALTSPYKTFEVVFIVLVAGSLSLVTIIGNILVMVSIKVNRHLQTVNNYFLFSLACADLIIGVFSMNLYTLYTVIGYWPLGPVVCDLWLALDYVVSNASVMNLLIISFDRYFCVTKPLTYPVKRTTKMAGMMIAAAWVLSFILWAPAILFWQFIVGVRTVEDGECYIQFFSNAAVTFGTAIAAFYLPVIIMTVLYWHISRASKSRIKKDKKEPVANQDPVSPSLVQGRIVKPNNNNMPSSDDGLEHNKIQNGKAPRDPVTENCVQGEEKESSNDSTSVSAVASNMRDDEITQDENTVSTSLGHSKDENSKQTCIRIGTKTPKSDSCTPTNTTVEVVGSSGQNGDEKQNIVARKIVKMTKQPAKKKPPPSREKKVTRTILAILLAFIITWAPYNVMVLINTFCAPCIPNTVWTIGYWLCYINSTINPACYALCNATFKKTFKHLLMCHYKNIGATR
# [2] = target: T1, human M2 receptor; format: cell-based; conditions: α >1 = positive cooperativity
# [3] = Receptor activity EC50, M2-GIRK1/4 activation test, acetylcholine at EC20, allosteric potency, in some cases mean values from two or more determinations
# [4] = shift in the acetylcholine dose-response curve (Allosteric EC50 shift, GraphPad PRISM)
# [5] = shift of acetylcholine dose-response curve (Allosteric EC50 shift)
# [6] = Receptor activity EC50, allosteric potency at EC20 acetylcholine, M2-GIRK1/4 reporter cells, in some cases mean of two or more determinations
Compound,"EC50 [1, 3] [nM]","Cooperativity (alpha factor) [2, 4]",also measured
"CO[C@@H]1CCN(c2ccc3c(=O)c(C(=O)NC45CCC(C)(CC4)CC5)cn(-c4ccc(F)cc4F)c3n2)C1 [Example 19, 1-(2,4-Difluorophenyl)-7-[(3R)-3-methoxypyrrolidin-1-yl]-N-(4-methylbicyclo[2.2.2]oct-1-yl)-4-oxo-1,4-dihydro-1,8-naphthyridine-3-carboxamide]",58,12,
"CN(C)c1ccc2c(=O)c(C(=O)NC34CC5CC(F)(CC(F)(C5)C3)C4)cn(-c3ccc(F)cc3F)c2n1 [Example 38, 1-(2,4-Difluorophenyl)-N-(3,5-difluorotricyclo[3.3.1.1^3,7]dec-1-yl)-7-(dimethylamino)-4-oxo-1,4-dihydro-1,8-naphthyridine-3-carboxamide]",41,14,
"N#CC1CCCN(c2ccc3c(=O)c(C(=O)NC45CC6CC(CC(C6)C4)C5)cn(-c4ccc(F)cc4F)c3n2)C1 (stereo not drawn) [Example 10, 7-(3-Cyanopiperidin-1-yl)-1-(2,4-difluorophenyl)-4-oxo-N-(tricyclo[3.3.1.1^3,7]dec-1-yl)-1,4-dihydro-1,8-naphthyridine-3-carboxamide]",60,12,
"CC[C@H](NC(=O)c1cn(-c2c(F)cccc2F)c2nc(N3C[C@@H](O)CC3=O)ccc2c1=O)C(F)(F)F [Example 333, 1-(2,6-Difluorophenyl)-7-[(4S)-4-hydroxy-2-oxopyrrolidin-1-yl]-4-oxo-N-[(2S)-1,1,1-trifluorobutan-2-yl]-1,4-dihydro-1,8-naphthyridine-3-carboxamide]",31,28,Emax ([1]; read-out: Efficiency): 94.5%
"O=C(NC12CC3CC(CC(C3)C1)C2)c1cn(-c2ccc(F)cc2F)c2nc(NCC(F)(F)F)ccc2c1=O [Example 90, 1-(2,4-Difluorophenyl)-4-oxo-N-(tricyclo[3.3.1.1^3,7]dec-1-yl)-7-[(2,2,2-trifluoroethyl)amino]-1,4-dihydro-1,8-naphthyridine-3-carboxamide]",298,11,
"CC[C@@H](NC(=O)c1cn(-c2ccc(F)cc2F)c2nc(N3CCC(O)(O)C(F)(F)C3)ccc2c1=O)C(F)(F)F [Example 35, 7-(3,3-Difluoro-4,4-dihydroxypiperidin-1-yl)-1-(2,4-difluorophenyl)-4-oxo-N-[(2R)-1,1,1-trifluorobutran-2-yl]-1,4-dihydro-1,8-naphthyridine-3-carboxamide]",62,24,
"CC[C@@H](NC(=O)c1cn(-c2ccc(F)cc2F)c2nc(N3CCC(C)(OC)C3=O)ccc2c1=O)C(F)(F)F (single isomer, unassigned) [Example 198]",113,13,
"CCC(NC(=O)c1cn(-c2c(F)cc(F)cc2F)c2nc(N3C[C@@H](O)CC3=O)ccc2c1=O)C(F)(F)C(F)(F)F (single isomer, unassigned) [Example 521]",,,"Efficiency ([1]; M2-GIRK1/4 reporter cells): 100.0%; EC50 ([1]; read-out: Receptor activity EC50, allosteric potency at EC20 acetylcholine, M2-GIRK1/4 reporter cells, in some cases mean of two or more determinations): 2 nM; Cooperativity (alpha factor) [2, 5]: 72"
"O=C(NC(c1c(F)cccc1F)C(F)(F)F)c1cn(-c2ccc(F)cc2F)c2nc(N3C[C@@H](O)CC3=O)ccc2c1=O (mixture of isomers) [Example 244, 1-(2,4-Difluorophenyl)-N-[1-(2,6-difluorophenyl)-2,2,2-trifluoroethyl]-7-[(4S)-4-hydroxy-2-oxopyrrolidin-1-yl]-4-oxo-1,4-dihydro-1,8-naphthyridine-3-carboxamide]",22,58,
"O=C(N[C@@H](C1CC1)C(F)(F)F)c1cn(-c2c(F)cc(F)cc2Cl)c2nc(N3C[C@@H](O)[C@H](O)C3)ccc2c1=O (single isomer, unassigned) [Example 548]",,,"EC50 [1, 6]: 9 nM; Efficiency ([1]; M2-GIRK1/4 reporter cells): 100.0%; Cooperativity (alpha factor) [2, 5]: 37"
"CC[C@H](NC(=O)c1cn(-c2c(F)cc(F)cc2F)c2nc(N3CCN/C3=N\C(=O)OC)ccc2c1=O)C(F)(F)F [Example 377, Methyl {1-[5-oxo-6-{[(2S)-1,1,1-trifluorobutan-2-yl]carbamoyl}-8-(2,4,6-trifluorophenyl)-5,8-dihydro-1,8-naphthyridin-2-yl]imidazolidin-2-ylidene}carbamate]",48,34,
"CCC(NC(=O)c1cn(-c2ccc(F)cc2F)c2nc(NCCF)ccc2c1=O)C(F)(F)F (racemic) [Example 85, rac-1-(2,4-Difluorophenyl)-7-[(2-fluoroethyl)amino]-4-oxo-N-[1,1,1-trifluorobutan-2-yl]-1,4-dihydro-1,8-naphthyridine-3-carboxamide]",118,26,
"O=C(NC12CC3CC(CC(C3)C1)C2)c1cn(-c2ccc(F)cc2F)c2nc(N3CC[C@@H](F)[C@H](O)C3)ccc2c1=O [Example 3, 1-(2,4-Difluorophenyl)-7-[(3R,4R)-4-fluoro-3-hydroxypiperidin-1-yl]-4-oxo-N-(tricyclo[3.3.1.1^3,7]dec-1-yl)-1,4-dihydro-1,8-naphthyridine-3-carboxamide]",17,30,
"CC(NC(=O)c1cn(-c2ccc(F)cc2F)c2nc(N3C[C@@H](O)CC3=O)ccc2c1=O)c1c(F)cccc1F (mixture of isomers) [Example 214, 1-(2,4-Difluorophenyl)-N-[1-(2,6-difluorophenyl)ethyl]-7-[(4S)-4-hydroxy-2-oxopyrrolidin-1-yl]-4-oxo-1,4-dihydro-1,8-naphthyridine-3-carboxamide]",107,43,
"CC[C@@H](NC(=O)c1cn(-c2ccc(F)cc2F)c2nc(N3CCC(C)(OC)C3=O)ccc2c1=O)C(F)(F)F (single isomer, unassigned) [Example 199]",263,15,
"CC(C)C(NC(=O)c1cn(-c2c(F)cc(F)cc2F)c2nc(N3CCNC3=O)ccc2c1=O)C(F)(F)F (racemic) [Example 537, 4-Oxo-7-(2-oxoimidazolidin-1-yl)-N-[1,1,1-trifluoro-3-methylbutan-2-yl]-1-(2,4,6-trifluorophenyl)-1,4-dihydro-1,8-naphthyridine-3-carboxamide]",,,"EC50 [1, 6]: 10 nM; Efficiency ([1]; M2-GIRK1/4 reporter cells): 92.0%; Cooperativity (alpha factor) [2, 5]: 31"

# More lines, main results first:
"EC50 [1, 3] [nM]","Cooperativity (alpha factor) [2, 4]",Compound,also measured
413,20,"O=C(NC(C(F)(F)F)C(F)(F)F)c1cn(-c2ccc(F)cc2F)c2nc(NCCF)ccc2c1=O [Example 89, 1-(2,4-Difluorophenyl)-7-[(2-fluoroethyl)amino]-N-(1,1,1,3,3,3-hexafluoropropan-2-yl)-4-oxo-1,4-dihydro-1,8-naphthyridine-3-carboxamide]",
36,18,"O=C(NC(c1ccccc1Cl)C(F)(F)F)c1cn(-c2ccc(F)cc2F)c2nc(N3CC[C@H](F)C3)ccc2c1=O (stereo partly drawn) [Example 217, N-[1-(2-Chlorophenyl)-2,2,2-trifluoroethyl]-1-(2,4-difluorophenyl)-7-[(3S)-3-fluoropyrrolidin-1-yl]-4-oxo-1,4-dihydro-1,8-naphthyridine-3-carboxamide]",
91,20,"CC[C@@H](NC(=O)c1cn(-c2ccc(F)cc2F)c2nc(N3CC[C@@H](F)[C@H](O)C3)ccc2c1=O)C(F)(F)F [Example 33, 1-(2,4-Difluorophenyl)-7-[(3R,4R)-4-fluoro-3-hydroxypiperidin-1-yl]-4-oxo-N-[(2R)-1,1,1-trifluorobutan-2-yl]-1,4-dihydro-1,8-naphthyridine-3-carboxamide]",
12,13,"CC[C@H](NC(=O)c1cn(-c2c(F)cc(F)cc2Cl)c2nc(N3CCC(C)(C)C3=O)ccc2c1=O)C(F)(F)F [Example 336, 1-(2-Chloro-4,6-difluorophenyl)-7-(3,3-dimethyl-2-oxopyrrolidin-1-yl)-4-oxo-N-[(2S)-1,1,1-trifluorobutan-2-yl]-1,4-dihydro-1,8-naphthyridine-3-carboxamide]",
295,8,"CC(NC(=O)c1cn(-c2ccc(F)cc2F)c2nc(NCC(F)F)ccc2c1=O)C(F)(F)F (racemic) [Example 121, rac-7-[(2,2-Difluoroethyl)amino]-1-(2,4-difluorophenyl)-4-oxo-N-[1,1,1-trifluoropropan-2-yl]-1,4-dihydro-1,8-naphthyridine-3-carboxamide]",
40,13,"CC[C@@H](NC(=O)c1cn(-c2ccc(F)cc2F)c2nc(N3C[C@@H](F)C[C@H]3C)ccc2c1=O)C(F)(F)F [Example 31, 1-(2,4-Difluorophenyl)-7-[(2R,4S)-4-fluoro-2-methylpyrrolidin-1-yl]-4-oxo-N-[(2R)-1,1,1-trifluorobutan-2-yl]-1,4-dihydro-1,8-naphthyridine-3-carboxamide]",
